System: HSSY-II tumor spheroid viability
Assay: Anticancer human tumor HSSY-II cell line growth inhibition;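 also: spheroids exposed to compounds for seven days before reading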;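 as to viability, T/C: percent of DMSO vehicle control viability so 100% = untreated level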
Conditions: spheroids with HUVEC and MSC; for IC50: curve of first compound; for viability, T/C: stronger effect = lower value
Source text: Multicellular complex tumor spheroid response to DNA repair inhibitors in combination with DNA-damaging drugs
This study explores the anticancer activities of DNA-damaging drugs and inhibitors of DNA damage repair, both as single agents and in combinations. Complex tumor spheroids comprised of malignant cells, endothelial cells and mesenchymal stem cells served as an in vitro model for human solid tumors. This model system incorporates physiologically relevant features and patient-derived or established malignant cell lines with clinically relevant genetic alterations from many tumor types. Twenty-six patient-derived or established malignant cell lines were evaluated representing sarcoma, melanoma, small cell lung cancer (SCLC), non-small cell lung cancer (NSCLC), as well as bladder, ovarian and pancreatic cancers. The concentration ranges selected for each drug and investigational agent were based upon clinically achievable concentrations if the clinical Cmax of the agent was known.
Compounds. The drugs and compounds olaparib (NSC753686), talazoparib (NSC767125), berzosertib (NSC777718), elimusertib (NSC800525), nedisertib (NSC802822), VX-984 (NSC792969), AZD-1390 (NSC803789), temozolomide (NSC362856), topotecan (NSC609699), trabectedin (NSC813783), staurosporine (NSC755774), and gemcitabine (NSC613327) were obtained from the National Cancer Institute (NCI) Developmental Therapeutics Program Chemical Repository. The FDA-approved anticancer drug set is available from the Developmental Therapeutics Program at https://dtp.cancer.gov/organization/dscb/obtaining/available_plates.htm. […] The stock solutions were prepared in dimethyl sulfoxide (DMSO, Sigma-Aldrich, St. Louis, MO, cat. D2650) at 400-fold the tested concentration and stored at -70 degrees C. Prior to their use, the stock solutions were diluted in fresh medium and the final DMSO concentration in the assay was 0.25% (v/v). All drugs and investigational agents were tested over a range starting from a high concentration at or near the clinical Cmax and decreasing in half-log increments. If the clinical Cmax for an agent had not been determined, the highest concentration tested was 10 microM.
Cell Lines. The patient-derived cancer cell (PDC) lines: 156681-154-R-J1-PDC, 283228-195-R-J1-PDC, 287954-098-R-J1-PDC, 292921-168-R-J2-PDC, 349418-098-R-PDC, 425362-245-T-J1-PDC, 556581-035-R-J1-PDC, and BL0293-F563-PDC were received from the NCI Patient-Derived Models Repository (PDMR, https://pdmr.cancer.gov). The established cell lines HS-SY-2 (RRID:CVCL_8719), MPNST, and SYO-1 (RRID:CVCL_7146) were obtained from the Sloan Kettering Institute. The alveolar soft parts sarcoma cell line ASPS-1 (RRID:CVCL_S738) was established at the NCI and grown from internal seed stocks. The following established cell lines were purchased from the American Type Culture Collection (ATCC, Manassas, VA): G-401 (ATCC, cat. CRL-1441, RRID:CVCL_0270), SW982 (ATCC, cat. HTB-93, RRID:CVCL_1734), VA-ES-BJ (ATCC, cat. CRL-2138, RRID:CVCL_1785), NCI-H719 (ATCC, cat. CRL-5837, RRID:CVCL_1582), NCI-H196 (ATCC, cat. CRL-5823, RRID:CVCL_1509), NCI-H841 (ATCC, cat. CRL-5845, RRID:CVCL_1595), NCI-H1618 (ATCC, cat. CRL-5879, RRID:CVCL_1480), NCI-H1876 (ATCC, cat. CRL-5902, RRID:CVCL_1503), DMS 114 (ATCC, cat. CRL-2066; RRID:CVCL_1174), NCI-H211 (ATCC, cat. CRL-5824; RRID:CVCL_1529), and SW 1271 (ATCC, cat. CRL-2177, RRID:CVCL_1716). The small cell lung cancer cell line COR-L88 was purchased from Sigma-Aldrich (cat. 92031917-1VL, RRID:CVCL_1141). The non-small cell lung cancer cell lines NCI-H226 (RRID:CVCL_1544) and NCI-H322M (RRID:CVCL_1557) were established at the NCI and grown from internal seed stocks. Pooled donor human umbilical vein endothelial cells (HUVEC, Lonza, cat. CC-2519) and human mesenchymal stem cells (hMSC, Lonza, cat. PT-2501) were purchased from Lonza (Walkersville, MD).
Cell Culture. All cells were maintained in an incubator at 37 degrees C and 5% CO2 with 95% humidity. […]

[1] = second compound 30 pM, first compound 0.0949 µM
[2] = second compound 30 pM, first compound 0.3 µM
[3] = second compound 30 pM, first compound 0.949 µM
[4] = second compound 30 pM, first compound 3 µM
[5] = second compound 94.9 pM, first compound 0.0949 µM
[6] = second compound 94.9 pM, first compound 0.3 µM
[7] = second compound 94.9 pM, first compound 0.949 µM
[8] = second compound 94.9 pM, first compound 3 µM
[9] = second compound 0.0003 µM, first compound 0.0949 µM
[10] = second compound 0.0003 µM, first compound 0.3 µM
[11] = second compound 0.0003 µM, first compound 0.949 µM
[12] = second compound 0.0003 µM, first compound 3 µM
[13] = second compound 0.000949 µM, first compound 0.0949 µM
[14] = second compound 0.000949 µM, first compound 0.3 µM
[15] = second compound 0.000949 µM, first compound 0.949 µM
[16] = second compound 0.000949 µM, first compound 3 µM
[17] = second compound 0.003 µM, first compound 0.0949 µM
[18] = second compound 0.003 µM, first compound 0.3 µM
[19] = second compound 0.003 µM, first compound 0.949 µM
[20] = second compound 0.003 µM, first compound 3 µM

CNCc1ccc(-c2cc(-c3nc(-c4ccc(S(=O)(=O)C(C)C)cc4)cnc3N)on2)cc1 + COc1cc2c(cc1O)CCNC21CSC2c3c(OC(C)=O)c(C)c4c(c3C(COC1=O)N1C(O)C3Cc5cc(C)c(OC)c(O)c5C(C21)N3C)OCO4
IC50 (second compound 30 pM): 31.5 nM
IC50 (second compound 94.9 pM): 11.5 nM
IC50 (second compound 0.0003 µM): < 9.49 nM
IC50 (second compound 0.000949 µM): < 9.49 nM
IC50 (second compound 0.003 µM): < 9.49 nM
viability, T/C (second compound 30 pM, first compound 0.00949 µM): 93.8%
viability, T/C (second compound 30 pM, first compound 0.03 µM): 51.9%
viability, T/C [1]: 7.62%
viability, T/C [2]: 4.24%
viability, T/C [3]: 1.27%
viability, T/C [4]: 0.11%
viability, T/C (second compound 94.9 pM, first compound 0.00949 µM): 57%
viability, T/C (second compound 94.9 pM, first compound 0.03 µM): 15.9%
viability, T/C [5]: 4.64%
viability, T/C [6]: 4.08%
viability, T/C [7]: 1.02%
viability, T/C [8]: 0.1%
viability, T/C (second compound 0.0003 µM, first compound 0.00949 µM): 10.1%
viability, T/C (second compound 0.0003 µM, first compound 0.03 µM): 5.43%
viability, T/C [9]: 3.66%
viability, T/C [10]: 3.41%
viability, T/C [11]: 0.72%
viability, T/C [12]: 0.12%
viability, T/C (second compound 0.000949 µM, first compound 0.00949 µM): 2.93%
viability, T/C (second compound 0.000949 µM, first compound 0.03 µM): 2.47%
viability, T/C [13]: 2.03%
viability, T/C [14]: 1.1%
viability, T/C [15]: 0.09%
viability, T/C [16]: 0.15%
viability, T/C (second compound 0.003 µM, first compound 0.00949 µM): 0.22%
viability, T/C (second compound 0.003 µM, first compound 0.03 µM): 0.27%
viability, T/C [17]: 0.21%
viability, T/C [18]: 0.2%
viability, T/C [19]: 0.18%
viability, T/C [20]: 0.25%

O=C(c1cc(Cc2n[nH]c(=O)c3ccccc23)ccc1F)N1CCN(C(=O)C2CC2)CC1 + COc1cc2c(cc1O)CCNC21CSC2c3c(OC(C)=O)c(C)c4c(c3C(COC1=O)N1C(O)C3Cc5cc(C)c(OC)c(O)c5C(C21)N3C)OCO4
IC50 (second compound 30 pM): 3000 nM
IC50 (second compound 94.9 pM): 875 nM
IC50 (second compound 0.0003 µM): < 94.9 nM
IC50 (second compound 0.000949 µM): < 94.9 nM
IC50 (second compound 0.003 µM): < 94.9 nM
viability, T/C [1]: 91.1%
viability, T/C [2]: 85.6%
viability, T/C [3]: 81.6%
viability, T/C [4]: 50.9%
viability, T/C (second compound 30 pM, first compound 9.49 µM): 12.3%
viability, T/C (second compound 30 pM, first compound 30 µM): 11.1%
viability, T/C [5]: 73%
viability, T/C [6]: 65.4%
viability, T/C [7]: 49.7%
viability, T/C [8]: 20.2%
viability, T/C (second compound 94.9 pM, first compound 9.49 µM): 9.72%
viability, T/C (second compound 94.9 pM, first compound 30 µM): 8.42%
viability, T/C [9]: 11.3%
viability, T/C [10]: 10.6%
viability, T/C [11]: 8.99%
viability, T/C [12]: 8.1%
viability, T/C (second compound 0.0003 µM, first compound 9.49 µM): 7.62%
viability, T/C (second compound 0.0003 µM, first compound 30 µM): 5.94%
viability, T/C [13]: 2.49%
viability, T/C [14]: 1.82%
viability, T/C [15]: 2.22%
viability, T/C [16]: 1.13%
viability, T/C (second compound 0.000949 µM, first compound 9.49 µM): 0.5%
viability, T/C (second compound 0.000949 µM, first compound 30 µM): 0.21%
viability, T/C [17]: 0.29%
viability, T/C [18]: 0.34%
viability, T/C [19]: 0.26%
viability, T/C [20]: 0.22%
viability, T/C (second compound 0.003 µM, first compound 9.49 µM): 0.24%
viability, T/C (second compound 0.003 µM, first compound 30 µM): 0.36%
